According to the supplement of paper PMC10331698:
± gives the standard deviation of the averaged measurements.

Legend:
Experiment in all cases: level (log10 ratio to DMSO vehicle control); higher = higher biomarker level / cell amount than vehicle control
Settings in all cases: in DMSO
[1] = compound: FC(F)(F)C(F)(F)C(F)(F)C(F)(F)C(F)(F)C(F)(F)C(F)(F)CCI [1-Iodo-1H,1H,2H,2H-perfluorononane]
Method: (§1)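 BioMAP Diversity Plus panel of 12 human primary cell co-culture systems (3C, 4H, LPS, SAg, BT, BF4T, BE3C, CASM3C, HDF3CGF, KF3CT, MyoF, Mphg). Compounds were added 1 h before stimulation and left for 24 h (MyoF 48 h; BT 72 h for soluble read-outs or 6 d for IgG). Biomarkers were read by ELISA, cytotoxicity by SRB, PBMC viability and proliferation by Alamar Blue. Each well value was divided by the mean of 8 DMSO control wells on the same plate and log10 transformed; duplicate blinded samples were tested at 4 concentrations.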

Hexafluoroglutaric acid = compound: O=C(O)C(F)(F)C(F)(F)C(F)(F)C(=O)O [Hexafluoroglutaric acid]
Method: as §1

Perfluorohexanoic acid = compound: O=C(O)C(F)(F)C(F)(F)C(F)(F)C(F)(F)C(F)(F)F [Perfluorohexanoic acid]
Method: as §1

[2] = compound: O=P(O)(O)CCC(F)(F)C(F)(F)C(F)(F)C(F)(F)C(F)(F)C(F)(F)C(F)(F)C(F)(F)F [((Perfluorooctyl)ethyl)phosphonic acid]
Method: as §1

[3] = compound: O=S(=O)(O)C(F)(F)C(F)(F)C(F)(F)C(F)(F)C(F)(F)C(F)(F)C(F)(F)C(F)(F)F [Perfluorooctanesulfonic acid]
Method: as §1

[4] = compound: O=S(=O)(O)C(F)(F)C(F)(F)C(F)(F)C(F)(F)C(F)(F)C(F)(F)C(F)(F)C(F)(F)F [Potassium perfluorooctanesulfonate]
Method: as §1

[5] = compound: O=S(=O)(O)C(F)(F)C(F)(F)C(F)(F)C(F)(F)F [Perfluorobutanesulfonic acid]
Method: as §1

Test System | level (log10) ([1]; 6700 nM) | level (log10) ([1]; 20000 nM) | level (log10) (Hexafluoroglutaric acid; 6700 nM) | level (log10) (Hexafluoroglutaric acid; 20000 nM) | level (log10) (Hexafluoroglutaric acid; 60000 nM) | level (log10) (Perfluorohexanoic acid; 6700 nM) | level (log10) (Perfluorohexanoic acid; 20000 nM) | level (log10) (Perfluorohexanoic acid; 60000 nM) | level (log10) ([2]; 6700 nM) | level (log10) ([2]; 20000 nM) | level (log10) ([2]; 60000 nM) | level (log10) ([3]; 6700 nM) | level (log10) ([3]; 20000 nM) | level (log10) ([3]; 60000 nM) | level (log10) ([4]; 6700 nM) | level (log10) ([4]; 20000 nM) | level (log10) ([4]; 60000 nM) | level (log10) ([5]; 6700 nM) | level (log10) ([5]; 20000 nM) | level (log10) ([5]; 60000 nM)
3C:CCL2/MCP-1 | -0.005 | 0.019 ± 0.011 | -0.0005 ± 0.0035 | 0.0095 ± 0.0035 | 0.028 ± 0.018 | -0.006 ± 0.0028 | -0.0145 ± 0.005 | 0.0115 ± 0.022 | 0.0005 ± 0.0092 | -0.0115 ± 0.0078 | -0.0085 ± 0.06 | 0.0115 ± 0.0035 | -0.012 ± 0.0028 | -0.0065 ± 0.013 | -0.056 ± 0.098 | -0.0125 ± 0.0035 | 0.009 ± 0.02 | 0.0025 ± 0.05 | 0.0015 ± 0.021 | 0.0355 ± 0.043
3C:CD54/ICAM-1 | -0.0115 ± 0.00071 | 0.0025 ± 0.016 | -0.0125 ± 0.018 | -0.0165 ± 0.019 | -0.0175 ± 0.018 | 0.005 ± 0.013 | -0.0045 ± 0.016 | -0.0005 ± 0.019 | -0.012 ± 0.014 | -0.0185 ± 0.012 | -0.021 ± 0.0085 | 0.004 ± 0.023 | 0.0185 ± 0.019 | 0.071 ± 0.024 | -0.001 ± 0.0071 | 0.0235 ± 0.005 | 0.046 ± 0.0071 | -0.008 ± 0.0014 | 0.0035 ± 0.0021 | 0.0015 ± 0.0021
3C:CD62E/E-Selectin | -0.0135 ± 0.0035 | -0.028 ± 0.014 | -0.0035 ± 0.053 | -0.002 ± 0.038 | 0.031 ± 0.014 | -0.0065 ± 0.0092 | -0.007 ± 0.011 | 0.0145 ± 0.029 | -0.011 ± 0.025 | -0.032 ± 0.021 | -0.056 ± 0.011 | 0.004 ± 0.0042 | 0.0175 ± 0.018 | 0.0695 ± 0.011 | -0.0025 ± 0.015 | 0.0195 ± 0.046 | 0.063 ± 0.035 | -0.0165 ± 0.022 | -0.008 ± 0.021 | 0.0045 ± 0.021
3C:CD106/VCAM-1 | -0.015 ± 0.014 | -0.0115 ± 0.0021 | 0.009 ± 0.018 | 0.004 ± 0.021 | -0.008 ± 0.0057 | -0.002 ± 0.018 | -0.0025 ± 0.029 | 0.005 ± 0.044 | -0.0115 ± 0.016 | -0.0345 ± 0.005 | -0.054 ± 0.0042 | 0.0005 ± 0.026 | 0.0045 ± 0.035 | 0.0295 ± 0.015 | 0.001 ± 0.016 | 0.013 ± 0.023 | 0.0375 ± 0.037 | -0.0215 ± 0.015 | -0.016 ± 0.025 | -0.006 ± 0.013
3C:CD141/Thrombomodulin | -0.028 ± 0.0014 | -0.01 ± 0.041 | -0.018 ± 0.017 | -0.014 ± 0.011 | -0.034 ± 0.0099 | -0.0205 ± 0.005 | -0.022 ± 0.027 | -0.006 | -0.0115 ± 0.00071 | -0.0115 ± 0.0078 | 0.013 ± 0.016 | -0.0015 ± 0.012 | -0.0025 ± 0.011 | 0.0455 ± 0.022 | 0.007 ± 0.018 | -0.0055 ± 0.033 | 0.041 ± 0.0071 | -0.0185 ± 0.049 | -0.019 ± 0.0085 | -0.054 ± 0.0085
3C:CD142/Tissue Factor | 0.01 ± 0.0071 | 0.0065 ± 0.0078 | -0.006 ± 0.02 | -0.004 ± 0.028 | -0.0685 ± 0.005 | 0.011 ± 0.0085 | -0.0135 ± 0.0092 | 0.0005 ± 0.012 | 0.025 ± 0.03 | 0.0455 ± 0.015 | 0.101 ± 0.023 | -0.0185 ± 0.07 | -0.0285 ± 0.073 | 0.0315 ± 0.067 | -0.018 ± 0.024 | -0.0065 ± 0.04 | 0.049 ± 0.02 | 0.003 ± 0.0028 | 0.001 ± 0.0071 | -0.005 ± 0.038
BE3C:Keratin 8/18 | -0.005 ± 0.017 | -0.007 ± 0.0085 | -0.006 ± 0.0085 | -0.018 ± 0.0014 | -0.003 ± 0.0042 | -0.017 ± 0.0057 | -0.0125 ± 0.0035 | -0.0175 ± 0.021 | -0.015 ± 0.011 | -0.012 ± 0.0028 | -0.006 ± 0.021 | 0.0205 ± 0.0021 | 0.016 ± 0.011 | -0.073 ± 0.04 | 0.0225 ± 0.00071 | 0.013 ± 0.0085 | -0.0155 ± 0.019 | 0.003 ± 0.0014 | -0.0035 ± 0.00071 | -0.0165 ± 0.0078
